Source: patent publication US20250034170A1, “SMALL MOLECULE MODULATORS OF GLUCOCEREBROSIDASE ACTIVITY AND USES THEREOF” (Vanqua Bio, Inc., priority 2021, published 2025)

The compounds below were run against T1, GCase (Homo sapiens, UniProt P04062) (assay: activation of GCase in a live cell PFB assay in HELA cells). Conditions: EC50 given as range classes.
T1 construct: endogenous in cells; host or cells: HeLa cells
T1 sequence (P04062 40-536): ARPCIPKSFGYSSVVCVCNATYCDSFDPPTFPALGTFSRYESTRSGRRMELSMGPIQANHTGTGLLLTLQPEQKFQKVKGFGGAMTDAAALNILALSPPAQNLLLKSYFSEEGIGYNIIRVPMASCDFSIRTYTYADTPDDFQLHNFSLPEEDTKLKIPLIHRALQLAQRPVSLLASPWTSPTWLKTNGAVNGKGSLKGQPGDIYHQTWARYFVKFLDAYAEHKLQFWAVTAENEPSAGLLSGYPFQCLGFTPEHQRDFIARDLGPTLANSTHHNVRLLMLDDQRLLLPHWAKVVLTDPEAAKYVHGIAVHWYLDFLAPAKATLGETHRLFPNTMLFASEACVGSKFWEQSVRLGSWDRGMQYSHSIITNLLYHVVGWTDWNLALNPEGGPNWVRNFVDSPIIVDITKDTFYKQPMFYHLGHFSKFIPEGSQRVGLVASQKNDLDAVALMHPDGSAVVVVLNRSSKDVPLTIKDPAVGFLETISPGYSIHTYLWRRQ
Type: cell-based
Method: Exemplary compounds were evaluated for activation of GCase in a live cell PFB assay in HELA cells (essentially as described in Ysselstein et al., “LRRK2 kinase activity regulates lysosomal glucocerebrosidase in neurons derived from Parkinson's disease patients” Nature Communications (2019) 10:5570). […] EC50 ranges: A: <10 μM; B: >10-50 μM; C: >50-100 μM; D: >100 μM.

SMILES | EC50 [µM]
O=C1N(c2ccc(C(F)(F)F)cn2)CCC12CCN(c1cnc3cnn(CC(F)F)c3n1)C2 (stereo not shown) [Cmpd 202] | 10 to 50
O=C1N(c2cccc(C(F)(F)F)n2)CCC12CCN(c1cnc3cnn(CC(F)F)c3n1)C2 (stereo not shown) [Cmpd 203] | 10 to 50
O=C1N(c2cncc(C(F)(F)F)c2)CCC12CCN(c1cnc3cnn(CC(F)F)c3n1)C2 (stereo not shown) [Cmpd 204] | 10 to 50
FC(F)Cn1ncc2ncc(N3CCC4(CC3)CN(c3cncc(C(F)(F)F)c3)CCO4)nc21 [Cmpd 206] | < 10
FC(F)Cn1ncc2ncc(N3CCC4(CC3)CN(c3ccc(C(F)(F)F)cn3)CCO4)nc21 [Cmpd 207] | < 10
FC(F)Cn1ncc2ncc(N3CCC4(CC3)CN(c3cccc(C(F)(F)F)n3)CCO4)nc21 [Cmpd 208] | 10 to 50
FC(F)Cn1ncc2ncc(N3CCOC4(CCN(c5cncc(C(F)(F)F)c5)CC4)C3)nc21 [Cmpd 210] | < 10
FC(F)Cn1ncc2ncc(N3CCOC4(CCN(c5cccc(C(F)(F)F)n5)CC4)C3)nc21 [Cmpd 211] | 10 to 50
FC(F)Cn1ncc2ncc(N3CCC4(CCCN(c5ccc(C(F)(F)F)cn5)C4)CC3)nc21 [Cmpd 213] | 10 to 50
FC(F)Cn1ncc2ncc(N3CCC4(CCCN(c5cncc(C(F)(F)F)c5)C4)CC3)nc21 [Cmpd 215] | < 10
FC(F)Cn1ncc2ncc(N3CCC4(CCCN(c5cccc(C(F)(F)F)n5)C4)CC3)nc21 [Cmpd 216] | 10 to 50
FC(F)Cn1ncc2ncc(N3CCCC4(CCN(c5cc(C(F)(F)F)ccn5)CC4)C3)nc21 [Cmpd 217] | 10 to 50
FC(F)Cn1ncc2ncc(N3CCCC4(CCN(c5ccc(C(F)(F)F)cn5)CC4)C3)nc21 [Cmpd 218] | 10 to 50
FC(F)Cn1ncc2ncc(N3CCCC4(CCN(c5cccc(C(F)(F)F)n5)CC4)C3)nc21 [Cmpd 219] | 10 to 50

Further lines, results first:

EC50 [µM] | SMILES
10 to 50 | FC(F)Cn1ncc2ncc(NC3COC4(C3)CN(c3ccc(C(F)(F)F)nc3)C4)nc21 (stereo not shown) [Cmpd 191]
< 10 | FC(F)Cn1ncc2ncc(NC3COC4(C3)CN(c3cc(C(F)(F)F)ccn3)C4)nc21 (stereo not shown) [Cmpd 192]
10 to 50 | FC(F)Cn1ncc2ncc(NC3CCC4(CCN(c5ccc(C(F)(F)F)nc5)C4)C3)nc21 (stereo not shown) [Cmpd 193]
< 10 | FC(F)Cn1ncc2ncc(NC3CCC4(CCN(c5cc(C(F)(F)F)ccn5)C4)C3)nc21 (stereo not shown) [Cmpd 194]
10 to 50 | FC(F)Cn1ncc2ncc(NC3CCC4(CCN(c5ccc(C(F)(F)F)nc5)CC4)C3)nc21 (stereo not shown) [Cmpd 195]
> 100 | FC(F)Cn1ncc2ncc(NC3CCC4(CCN(c5cc(C(F)(F)F)ccn5)CC4)C3)nc21 (stereo not shown) [Cmpd 196]
10 to 50 | FC(F)Cn1ncc2ncc(N[C@H]3CC[C@@]4(CCN(c5cc(C(F)(F)F)ccn5)C4)CC3)nc21 [Cmpd 197]
10 to 50 | FC(F)Cn1ncc2ncc(NC3CCC4(CC3)CN(c3ccc(C(F)(F)F)cn3)C4)nc21 [Cmpd 198]
< 10 | FC(F)Cn1ncc2ncc(NC3CCC4(CC3)CN(c3cncc(C(F)(F)F)c3)C4)nc21 [Cmpd 199]
10 to 50 | FC(F)Cn1ncc2ncc(NC3CCC4(CC3)CN(c3ccc(C(F)(F)F)nc3)C4)nc21 [Cmpd 200]
10 to 50 | O=C1N(c2ccc(C(F)(F)F)nc2)CCC12CCN(c1cnc3cnn(CC(F)F)c3n1)C2 (stereo not shown) [Cmpd 201]
< 10 | FC(F)Cn1ncc2ncc(N3CCC4(CC3)CN(c3ccc(C(F)(F)F)nc3)CCO4)nc21 [Cmpd 205]
< 10 | FC(F)Cn1ncc2ncc(N3CCOC4(CCN(c5ccc(C(F)(F)F)nc5)CC4)C3)nc21 [Cmpd 209]
10 to 50 | FC(F)Cn1ncc2ncc(N3CCOC4(CCN(c5ccc(C(F)(F)F)cn5)CC4)C3)nc21 [Cmpd 212]
10 to 50 | FC(F)Cn1ncc2ncc(N3CCC4(CCCN(c5ccc(C(F)(F)F)nc5)C4)CC3)nc21 [Cmpd 214]
< 10 | FC(F)Cn1ncc2ncc(N3CCCC4(CCN(c5ccc(C(F)(F)F)nc5)CC4)C3)nc21 [Cmpd 220]

Same assay, conditions: activation of GCase, EC50 ranges

EC50 [µM] | SMILES
10 to 50 | C[C@H]1CN(c2cnc3cnn(CC(F)F)c3n2)CC[C@@]12CCN(c1cccc(C(F)(F)F)n1)C2=O (racemic) [Cmpd 669]
